Measurements as given in patent publication US11427553B2, “Dihydrooxadiazinones” (Bayer Aktiengesellschaft, priority 2017, dated 2022).

Experiments:
DKMG cells = assay: Assay 2 cell proliferation measurement, DKMG; assay type: cell-based; details: Homo sapiens, Glioma_astrocytoma, read-out: Anti-proliferation IC50 [nM] DKMG
Procedure: Cell Proliferation Measurement
The antiproliferative activity of the compounds of the general formula (I) was examined in vitro in human cancer cells. For this purpose, 500 cells, including HeLa cells, A2058 cells, DU145 cells, HMCB cells, IGR37 cells, NCIH1734 cells, OSRC2 cells, or 750 cells, including CAL51 cells, COL0741 cells, DBTRG05MG cells, DKMG cells, G292CLONEA141B1 cells, GB1 cells, HEL cells, HEL9217 cells, JHUEM1 cells, L3.3 cells, LI7 cells, TE4 cells, or 1000 cells, including 8505C cells, HUT78 cells, NCIH1563 cells, NCIH2122 cells, NCIH2172 cells, RVH421 cells, SKMEL3 cells, or 1500 cells, including C32 cells, HS578T cells, JHOM1 cells, NCIH196 cells, OVKATE cells, were plated in 384-well plates with appropriate growth medium and incubated at 37° C. overnight. After 24 h, the cells on the test plate were treated with the compounds of the general formula (I) as and incubated at 37° C. for 72 h. The compounds were added to the cells by means of an HP D300 digital dispenser in a 10 (or more)-step dilution series. As control, the cells were treated with vehicle (DMSO at 0.3% final concentration). After 72 h, the cells were treated with 20 μl/well of 50% CTG solution in PBS (Promega Cell Titer Glo (catalogue #G755B and G756B)) and incubated at room temperature for 10 min, and luminescence was measured by means of a VICTOR V (Perkin Elmer), in order to determine cell viability at the end of treatment. The percentage effect on cell growth and the IC50 derived therefrom were determined for each test substance using the values from untreated wells (=percent viability). The IC50 values were calculated using a 4-parameter fit.

[1] = test system: IGR-37 xenograft (Melanoma); assay: Assay 3 in vivo xenotransplantation model, IGR-37; details: IGR-37 melanoma xenograft, mice, 10 mg/kg 2QD p.o.; * P < 0.05 vs control
Text: In Vivo Xenotransplantation Models
The anti-tumor activities of Compounds of examples 135 and 146 were examined in murine xenotransplantation models of human cancer. For this purpose, mice were implanted subcutaneously with tumor cells. At a mean tumor size of 20-40 mm^2 animals were randomized into treatment and control groups (at least n=10 animals/group) and treatment started with vehicle only or respective Compound (formulation: 90% PEG400/10% Ethanol; application route: per os (“p.o.”), orally). The oral application volume was 10 ml/kg. In the case of twice daily treatments, the time interval between two applications per day was 6-7 h. The tumor size and the body weight were determined at least weekly. The tumor area was detected by means of an electronic caliper [length (mm)×width (mm)]. The experiment was ended when the study reached the pre-determined ethical endpoint based on German and European animal welfare regulations. In vivo anti-tumor efficacy is presented as T/C ratio at study end (Treatment/Control; mean tumor weight of treatment group/mean tumor weight of control group) in Table 8. A compound having a T/C below 0.5 is defined as active (i.e., effective). Statistical analysis was assessed using SigmaStat software. A one-way analysis of variance was performed and differences to the control were compared by a pair-wise comparison procedure (Dunn's method).

[2] = Assay 6 in vitro metabolic stability in cryopreserved human hepatocytes (CL, Fmax); assay type: in vitro ADME; details: 1 μM test compound; for Clblood: hepatic in vivo blood clearance calculated (well-stirred) from half-life in cryopreserved human hepatocytes; for Fmax: maximal oral bioavailability calculated from half-life in cryopreserved human hepatocytes
Method in brief: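 Test compound at 1 μM incubated with cryopreserved human hepatocytes (1.0×10^6 viable cells/ml, WME with 5% FCS) under shaking, with samples taken from 2 to 90 min, methanol-quenched and analysed by LC-MS/MS. Half-life gave intrinsic clearance, scaled with liver blood flow and hepatocellularity to CL and Fmax.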

Hs 578T cells = assay: Assay 1 cell proliferation measurement, Hs 578T; assay type: cell-based; details: Homo sapiens, Breast, read-out: Anti-proliferation IC50 [nM] Hs 578T
DK-MG cells = assay: Assay 1 cell proliferation measurement, DK-MG; assay type: cell-based; details: Homo sapiens; Glioblastoma; read-out: Anti-proliferation IC50 [nM] DK-MG
CHL-1 cells = assay: Assay 1 cell proliferation measurement, CHL-1; assay type: cell-based; details: Homo sapiens, Melanoma, read-out: Anti-proliferation IC50 [nM] CHL-1
A-2058 cells = assay: Assay 1 cell proliferation measurement, A-2058; assay type: cell-based; details: Homo sapiens, A2058; Melanoma; read-out: Anti-proliferation IC50 [nM] A-2058

C[C@@H]1OC(=O)NN=C1c1ccc(-n2ccc(C(F)(F)F)n2)c(C(F)(F)F)c1 [Example 265, (6S)-6-Methyl-5-{3-(trifluoromethyl)-4-[3-(trifluoromethyl)-1H-pyrazol-1-yl]phenyl}-3,6-dihydro-2H-1,3,4-oxadiazin-2-one]
IC50 (DKMG cells): 59 nM | T/C (mean final tumor weight treatment / control) [1]: 0.27* | Clblood [2]: 0.51 L/h/kg | Fmax [2]: 61%

O=C1NN=C(c2ccc(-c3cnn(C(F)F)c3)c(C(F)(F)F)c2)CO1 [Example 146, 5-{4-[1-(Difluoromethyl)-1H-pyrazol-4-yl]-3-(trifluoromethyl)phenyl}-3,6-dihydro-2H-1,3,4-oxadiazin-2-one]
IC50 (Hs 578T cells): 28 nM | IC50 (DK-MG cells): 12 nM | IC50 (CHL-1 cells): 8 nM | IC50 (A-2058 cells): 16 nM | IC50 (DKMG cells): 13 nM | T/C (mean final tumor weight treatment / control) [1]: 0.05* | Clblood [2]: 0.53 L/h/kg | Fmax [2]: 60%

O=C1NN=C(c2ccc(-c3ccc(Cl)cc3)c(C(F)(F)F)c2)CO1 [Example 31, 5-[4′-Chloro-2-(trifluoromethyl)biphenyl-4-yl]-3,6-dihydro-2H-1,3,4-oxadiazin-2-one]
IC50 (Hs 578T cells): > 100 nM | IC50 (DK-MG cells): 39 nM | IC50 (CHL-1 cells): 28 nM | IC50 (A-2058 cells): 51 nM | Clblood [2]: 0.64 L/h/kg | Fmax [2]: 52%

O=C1NN=C(c2ccc(-c3ccc(F)cc3)c(C(F)(F)F)c2)CO1 [Example 3, 5-[4′-Fluoro-2-(trifluoromethyl)biphenyl-4-yl]-3,6-dihydro-2H-1,3,4-oxadiazin-2-one]
IC50 (Hs 578T cells): 29 nM | IC50 (DK-MG cells): 21 nM | IC50 (CHL-1 cells): 9 nM | Clblood [2]: 0.39 L/h/kg | Fmax [2]: 70%

C[C@@H]1OC(=O)NN=C1c1ccc(-c2ccc(F)cc2)c(C(F)(F)F)c1 [Example 135, (6S)-5-[4′-Fluoro-2-(trifluoromethyl)biphenyl-4-yl]-6-methyl-3,6-dihydro-2H-1,3,4-oxadiazin-2-one]
IC50 (A-2058 cells): 24 nM | IC50 (DKMG cells): 22 nM | T/C (mean final tumor weight treatment / control) [1]: 0.06* | Clblood [2]: 0.98 L/h/kg | Fmax [2]: 26%
